Assay results as given in PMC8234218, “In Vitro and In Vivo Efficacies of the Linear and the Cyclic Version of an All-D-Enantiomeric Peptide Developed for the Treatment of Alzheimer’s Disease” (International Journal of Molecular Sciences, 2021).
Like-named read-outs stand apart in the source and are kept apart here. Where a SMILES comes first, the peptide text is derived from it. [ ]: non-standard residue; d: D form.

Key:
Aβ(1-42) = biological target: T1, Aβ(1-42) (Homo sapiens, UniProt P05067); assay: SPR, Aβ(1-42) immobilized, D-peptide as analyte; format: binding; settings: SPR Biacore T200, Aβ(1-42) immobilized on CM-5 chip by amine coupling, D-peptide analyte 0.625-20 µM, multicycle, 10 mM HEPES + 50 mM NaCl pH 7.4, 25 °C, steady-state Langmuir 1:1 fit (Fig. 1a)
T1 construct: Synthetic Aβ(1-42) and (Gln^22, Asn^23)-Amyloid β-Protein (1-40) (D/I Aβ) with >95% purity were purchased; purchased Bachem (Bubendorf, Switzerland); host or cells: chemical synthesis
Method: The dissociation constant (KD) of RD2D3 and cRD2D3 binding to Aβ(1-42) and D/I Aβ was determined by SPR spectroscopy using a Biacore T200 instrument (Biacore, GE Healthcare, Uppsala, Sweden). Aβ(1-42) or D/I Aβ was used as the ligand, while RD2D3 and cRD2D3 were used as the analyte or vice versa.
By using Aβ(1-42) or D/I Aβ as a ligand, it was immobilized onto a series S CM-5 sensor chip (GE Healthcare, Uppsala, Sweden) by amine coupling. In short, the flow cells were activated by a mixture of 50 mM N-hydroxysuccinimide (NHS) and 16.1 mM N-Ethyl-N’-(dimethylaminopropyl)carbodiimide (EDC) (XanTec, Düsseldorf, Germany) for 7 min. Aβ(1-42) or D/I Aβ were dissolved to a final concentration of 50 µg/mL in 10 mM sodium acetate pH 5 (AppliChem, Darmstadt, Germany) and injected over one of the activated flow cells to a final signal of 1700 RU. After the immobilization, the ligand and reference flow cells were quenched by injecting 1 M ethanolamine pH 8.5 (XanTec, Düsseldorf, Germany) for 7 min. […] The peptides were diluted in the running buffer to the following concentrations: 20 µM, 10 µM, 5 µM, 2.5 µM, 1.25 µM and 0.625 µM. All samples were injected over the flow cells for 180 s, followed by a dissociation step of 600 s with running buffer. Regeneration of the sensor chip was accomplished by a 45 s injection of 2 M of guanidinium hydrochloride (AppliChem, Darmstadt, Germany). […]

D/I Aβ-oligomers = biological target: T2, D/I Aβ-oligomers (Homo sapiens, UniProt P05067, D694N/E693Q); assay: QIAD assay, D/I Aβ oligomer elimination; format: biochemical; settings: 40 µM D/I Aβ preincubated 15 min, 10 µM D-peptide, 30 min coincubation, density gradient fractions 4-6, RP-HPLC UV 214 nm, N = 2-5
T2 construct: (Gln^22, Asn^23)-Amyloid β-Protein (1-40) (D/I Aβ); purchased Bachem (Bubendorf, Switzerland); host or cells: chemical synthesis
Method: According to Brener et al., a QIAD assay was performed in order to evaluate the Aβ(1-42) or D/I Aβ oligomer elimination efficacies of RD2D3 and cRD2D3 [18]. In short, 80 µM lyophilized Aβ(1-42) or 40 µM D/I Aβ was preincubated for 2 h or 15 min, respectively, to enrich Aβ-oligomers. Afterwards, either 20 µM RD2D3 or cRD2D3 for Aβ(1-42) or 10 µM RD2D3 or cRD2D3 for D/I Aβ were added to the preincubated solution and coincubated for additional 30 min. Subsequently, the samples were loaded on the top of a density gradient (5–50% (w/v) iodixanol (OptiPrep, Sigma-Aldrich, Darmstadt, Germany)) followed by an ultracentrifugation step (3 h at 4 °C and 259000× g (Optima TL-100, Beckman Coulter, Brea, CA, USA)). Following the ultracentrifugation, 14 fractions (140 µL each) were harvested by upward displacement. Fraction 15 contains the dissolved pellet in 6 M guanidine hydrochloride solution. Top fractions 1–2 contained Aβ-monomers, fractions 4–6 contained the Aβ-oligomers, which are of special interest, and the bottom fractions 11–14 contained high molecular weight (co-)precipitates or aggregated Aβ. Aβ(1-42) or D/I Aβ concentrations of each fraction were determined via analytical RP-HPLC and UV absorbance detection at 214 nm.

[1] = Proteolytic stability in simulated intestinal fluid (SIF); format: in vitro ADME
Method: Both compounds have already been extensively studied with respect to their in vivo pharmacokinetic profiles. Here, we performed some additional test to investigate the proteolytic stability of the compounds in simulated gastric (SGF) and intestinal fluid (SIF) and human plasma and human liver microsomes. The experiments were performed as described previously. According to the guidelines of the European Pharmacopoeia 7.0, SGF and SIF were prepared. Plasma was purchased from Biotrend with K3-EDTA as an anticoagulant (Biotrend, Köln, Germany). Human liver microsomes were pooled from different donors and purchased from Sekisui XenoTech (Kansas City, KS, USA). In order to determine whether the compounds RD2D3 and cRD2D3 are stable or would be metabolized, 150 µM of each compound was incubated in triplicate for defined time points slightly shaking at 37 °C in the media described above (SGF and SIF: 4 and 8 h, plasma: 8, 24 and 48 h and microsomes: 8 and 24 h). Incubation was stopped by precipitating the proteins. For this, 3% trichloroacetic acid (w/v) was added to the respective sample under vortexing followed by a centrifugation step (14,000× g at 4 °C for 5 min). For analysis, supernatants containing the compounds were collected. The precipitated media without compound was used as a control and as reference for the quantification served each medium with compound where the reaction was stopped immediately by precipitating the proteins. All samples were analyzed by RP-HPLC as previously described.

Structure (SMILES)	Kd (Aβ(1-42)) [µM]	Elimination of toxic D/I Aβ-oligomers (QIAD) (D/I Aβ-oligomers) [%]	remaining at 4 h, 150 µM ([1]; simulated intestinal fluid) [%]	remaining at 8 h, 150 µM ([1]; simulated intestinal fluid) [%]	remaining at 4 h, 150 µM ([1]; simulated intestinal fluid (SIF), simulated intestinal fluid (Eur. Pharmacopoeia 7.0), 150 µM, 37 °C, 4 h, TCA precipitation, RP-HPLC, referenced to immediately stopped sample, mean of three independent experiments, read-out: Stability in SIF, 4 h) [%]	remaining at 8 h, 150 µM ([1]; simulated intestinal fluid (SIF), simulated intestinal fluid (Eur. Pharmacopoeia 7.0), 150 µM, 37 °C, 8 h, TCA precipitation, RP-HPLC, referenced to immediately stopped sample, mean of three independent experiments, read-out: Stability in SIF, 8 h) [%]
CC(C)C[C@@H](NC(=O)[C@@H](CCCNC(=N)N)NC(=O)[C@H](NC(=O)[C@@H](CCCNC(=N)N)NC(=O)[C@H]1CCCN1C(=O)[C@@H](CCCNC(=N)N)NC(=O)[C@@H](CCCNC(=N)N)NC(=O)[C@@H](CCCNC(=N)N)NC(=O)[C@@H](CCCNC(=N)N)NC(=O)[C@@H](CCCNC(=N)N)NC(=O)[C@@H](CCCNC(=N)N)NC(=O)[C@@H](CC(N)=O)NC(=O)[C@@H](Cc1c[nH]cn1)NC(=O)[C@H](NC(=O)[C@@H](Cc1c[nH]cn1)NC(=O)[C@@H](CC(C)C)NC(=O)[C@H](NC(=O)[C@H]1CCCN1)[C@H](C)O)[C@H](C)O)[C@H](C)O)C(=O)N[C@H](Cc1c[nH]cn1)C(=O)N[C@@H](C(=O)N[C@H](Cc1c[nH]cn1)C(=O)N[C@H](CCCNC(=N)N)C(=O)N[C@H](CC(N)=O)C(=O)N[C@H](CCCNC(=N)N)C(N)=O)[C@H](C)O [RD2D3] (H-[dP][dT][dL][dH][dT][dH][dN][dR][dR][dR][dR][dR][dR][dP][dR][dT][dR][dL][dH][dT][dH][dR][dN][dR]-NH2)	7.01 ± 0.31	94	100	93.5	–	–
CC(C)C[C@H]1NC(=O)[C@@H](CCCNC(=N)N)NC(=O)[C@@H]([C@H](C)O)NC(=O)[C@@H](CCCNC(=N)N)NC(=O)[C@H]2CCCN2C(=O)[C@@H](CCCNC(=N)N)NC(=O)[C@@H](CCCNC(=N)N)NC(=O)[C@@H](CCCNC(=N)N)NC(=O)[C@@H](CCCNC(=N)N)NC(=O)[C@@H](CCCNC(=N)N)NC(=O)[C@@H](CCCNC(=N)N)NC(=O)[C@@H](CC(N)=O)NC(=O)[C@@H](Cc2c[nH]cn2)NC(=O)[C@@H]([C@H](C)O)NC(=O)[C@@H](Cc2c[nH]cn2)NC(=O)[C@@H](CC(C)C)NC(=O)[C@@H]([C@H](C)O)NC(=O)[C@H]2CCCN2C(=O)[C@@H](CCCNC(=N)N)NC(=O)[C@@H](CC(N)=O)NC(=O)[C@@H](CCCNC(=N)N)NC(=O)[C@@H](Cc2c[nH]cn2)NC(=O)[C@@H]([C@H](C)O)NC(=O)[C@@H](Cc2c[nH]cn2)NC1=O [cRD2D3] (cyclo([dH][dN][dR][dR][dR][dR][dR][dR][dP][dR][dT][dR][dL][dH][dT][dH][dR][dN][dR][dP][dT][dL][dH][dT]))	10.4 ± 0.61	100	–	–	96	87.2
